According to US8293791B2, “Method of neuroprotection by pharmacological inhibition of AMP-activated protein kinase” (priority 2004, dated 2012):
Entries after “also recorded” stand apart in the source; their conditions may differ. Read-outs that look alike come from different tables or passages of the source.

Experiments:
male C57B6 mice [1] = conditions: mouse, in vivo
male C57B6 mice [2] = assay: Infarction volume (TTC staining) after 2-hr reversible MCAO with 22 hr reperfusion; format: in vivo, mouse
Method: Cerebral ischemia was induced by 120 minutes of reversible right middle cerebral artery occlusion (MCAO) under halothane anesthesia followed by reperfusion for various times for male C57B6 mice (Charles River) or male rats, as described by McCullough, et al., Stroke, 32, 796-802 (2001) and McCullough, et al., J. Neuroscience, 24, pp. 257-268 (2004), respectively. Intra-ischemic and 22 hour post-reperfusion neurological deficits (NDS) were scored as follows: 0, no deficit; 1, forelimb weakness and torso turning to the ipsilateral side when held by tail; 2, circling to affected side; 3, unable to bear weight on affected side; and 4, no spontaneous locomotor activity or barrel rolling. Any animal without deficit was excluded from the study. At end-ischemia, the animal was briefly re-anaesthetized and reperfusion was initiated by filament withdrawal. Sham animals were subjected to the equivalent surgical preparation, but the suture was not advanced into the internal carotid. For the pharmacological neuroprotection studies, mice survived 22 hours after reperfusion, at which time behavioral scoring was done. The brain was then harvested for pathological examination with TTC histology (see Histopathology section). In separate animal cohorts, physiological measurements, femoral arterial blood pressure and cortical perfusion (laser Doppler flowmetry) were evaluated throughout MCAO and early reperfusion as described in the 2001 McCullough paper referenced above. Additional animals were exposed to ischemia or sham surgery after pharmacological or vehicle treatment and were sacrificed at 4 or 24 hours for Western blot analysis. Male nNOS and PARP-1 deficient mice (see, Huang, et al., Science, 265, 1883-1885 (1994); Eliasson, et al, Nat. Med, 3, 1089-1095 (1997)) were subjected to 2-hour right MCAO or sham surgery and compared to additional WT cohorts (C57-BL6 for nNOS−/− and SVEV for PARP−/−). Infarction volume was analyzed by 2,3,5-triphenyltetrazolium staining in five 2-mm slices. Infarction volume was determined by video microscopy and image analysis (Inquiry 3, Loats Associates), as previously described by McCullough, et al., J. Neuroscience 23, pp. 8701-8705 (2003). All data are expressed as mean±SEM. Physiological variables and histology were analyzed by 1-way ANOVA with a post-hoc Newman-Keuls to correct for multiple comparisons. Post-ischemic neurological scores were analyzed by the Mann-Whitney U test. Values were considered statistically significant at *, p<0.05; **, p<0.01; ***, p<0.001

[3] = system: AMPKα phosphorylation (pAMPK); assay: Western blot analysis of pAMPK levels in brain hemispheres after MCAO or sham surgery; format: in vivo, mouse
Method: Cerebral ischemia was induced by 120 minutes of reversible right middle cerebral artery occlusion (MCAO) under halothane anesthesia followed by reperfusion for various times for male C57B6 mice (Charles River) or male rats, as described by McCullough, et al., Stroke, 32, 796-802 (2001) and McCullough, et al., J. Neuroscience, 24, pp. 257-268 (2004), respectively. Intra-ischemic and 22 hour post-reperfusion neurological deficits (NDS) were scored as follows: 0, no deficit; 1, forelimb weakness and torso turning to the ipsilateral side when held by tail; 2, circling to affected side; 3, unable to bear weight on affected side; and 4, no spontaneous locomotor activity or barrel rolling. Any animal without deficit was excluded from the study. At end-ischemia, the animal was briefly re-anaesthetized and reperfusion was initiated by filament withdrawal. Sham animals were subjected to the equivalent surgical preparation, but the suture was not advanced into the internal carotid. For the pharmacological neuroprotection studies, mice survived 22 hours after reperfusion, at which time behavioral scoring was done. The brain was then harvested for pathological examination with TTC histology (see Histopathology section). In separate animal cohorts, physiological measurements, femoral arterial blood pressure and cortical perfusion (laser Doppler flowmetry) were evaluated throughout MCAO and early reperfusion as described in the 2001 McCullough paper referenced above. Additional animals were exposed to ischemia or sham surgery after pharmacological or vehicle treatment and were sacrificed at 4 or 24 hours for Western blot analysis. Male nNOS and PARP-1 deficient mice (see, Huang, et al., Science, 265, 1883-1885 (1994); Eliasson, et al, Nat. Med, 3, 1089-1095 (1997)) were subjected to 2-hour right MCAO or sham surgery and compared to additional WT cohorts (C57-BL6 for nNOS−/− and SVEV for PARP−/−). Mouse and rat stroke and sham brain samples were obtained by rapid removal of the brain from the skulk resection of the cerebellum, followed by immediate dissection into the right (R) and left (L) hemispheres. Samples were flash frozen in liquid nitrogen. Samples from rats were further sub-dissected into core and penumbral regions for both hemispheres. Samples were stored at −80° C. until use. […] SDS detergent was added to a final concentration of 0.2%, and lysates were boiled for 5 min. After the supernatant was harvested, protein concentration was determined using a BCA kit (Bio Rad). 40 μg of protein was loaded per lane on a 4-15% gradient SDS-polyacrylamide gel, and transferred to a polyvinylidene difluoride membrane. Blots were successively probed, stripped and reprobed for antigen detection. Phosphorylation of AMPKα was determined using an anti-phospho-AMPKα (α1 and α2 Thr) antibody (1:1000, Cell Signaling). ACC (1:500), p-ACC (1:1000), pAkt (1:500), and Akt (1:500) antibodies were obtained from Upstate, Lake Placid, N.Y. Anti-AMPKα antibody (anti-α1 and α2, 1:1000; Cell Signaling), hsp-70 (1:1000; Santa Cruz), and β-actin (1:5000; Sigma) were used as loading controls. All blots were incubated overnight in primary antibody at 4° C. in TBS buffer containing 5% BSA and 0.1% Triton-X-100. The secondary antibody (goat anti-rabbit IgG, Chemicon) was diluted to 1:5,000, and ECL (pico) detection kit was used for signal detection.

male C57B6 mice [4] = assay: Neurological deficit score (NDS) after MCAO; format: in vivo, mouse
Method: Cerebral ischemia was induced by 120 minutes of reversible right middle cerebral artery occlusion (MCAO) under halothane anesthesia followed by reperfusion for various times for male C57B6 mice (Charles River) or male rats, as described by McCullough, et al., Stroke, 32, 796-802 (2001) and McCullough, et al., J. Neuroscience, 24, pp. 257-268 (2004), respectively. Intra-ischemic and 22 hour post-reperfusion neurological deficits (NDS) were scored as follows: 0, no deficit; 1, forelimb weakness and torso turning to the ipsilateral side when held by tail; 2, circling to affected side; 3, unable to bear weight on affected side; and 4, no spontaneous locomotor activity or barrel rolling. Any animal without deficit was excluded from the study. At end-ischemia, the animal was briefly re-anaesthetized and reperfusion was initiated by filament withdrawal. […] In separate animal cohorts, physiological measurements, femoral arterial blood pressure and cortical perfusion (laser Doppler flowmetry) were evaluated throughout MCAO and early reperfusion as described in the 2001 McCullough paper referenced above. […]
All data are expressed as mean±SEM. Physiological variables and histology were analyzed by 1-way ANOVA with a post-hoc Newman-Keuls to correct for multiple comparisons. Post-ischemic neurological scores were analyzed by the Mann-Whitney U test. […]

male C57B6 mice [5] = assay: Physiological measurements, arterial blood pressure and laser Doppler flow during MCAO and early reperfusion; conditions: for MAP: averaged over the 2 hours of ischemia (all); for MAP / LDF (% BL) / HCO3 / Hg / PCO2 / PO2 / Ph: n=4/group; for LDF (% BL) / HCO3 / Hg / PCO2 / PO2 / Ph: intra-ischemic; for LDF (% BL): averaged over the 2 hours of ischemia

NC(=O)c1ncn([C@@H]2O[C@H](CO)[C@@H](O)[C@H]2O)c1N [AICAR, 5-aminoimidazole-4-carboxamide ribonucleoside]
CBF at 30 minutes after reperfusion (male C57B6 mice [1]): 82.7 % of baseline
HCO3 (male C57B6 mice [1]): 22.9 ± 2.3
Hg (male C57B6 mice [1]): 13.4 ± 0.9
LDF (% BL) (male C57B6 mice [1]): 11.1 ± 1.2 % BL
MAP (male C57B6 mice [1]): 77.7 ± 7.3 (all)
PCO2 (male C57B6 mice [1]): 39.7 ± 4.9
PO2 (male C57B6 mice [1]): 128 ± 15.2
Ph (male C57B6 mice [1]): 7.33 ± 0.11
intraischemic CBF, vs controls (male C57B6 mice [1]): no differences
mean arterial pressure (MAP) at 15 minutes after injection (male C57B6 mice [1]): 69 mmHg
total and cortical (CTX) stroke volumes (male C57B6 mice [2]; AICAR 500 mg/kg i.p. at stroke onset, vs vehicle): significant exacerbation
pAMPK by 24 hr ([3]; AICAR treated animals): returned to baseline
pAMPK 4 hr following stroke (2 hours of reperfusion) ([3]; AICAR treated vs vehicle treated animals): elevations

C=C1C(=O)OC(CCCCCCCC)C1C(=O)O (stereo not drawn) [C75]
behavioral scores (score 0-4) (male C57B6 mice [4]; C75 20 mg/kg i.p. immediately prior to onset of ischemia, vehicle 3.2±0.05): 2.0±0.03
LDF or physiological variables, vs vehicle (male C57B6 mice [5]; C75 20 mg/kg i.p., n=4): no differences
MAP (male C57B6 mice [5]): 79.1 ± 6.5
LDF (% BL) (male C57B6 mice [5]): 10.6 ± 0.88 % BL
HCO3 (male C57B6 mice [5]): 22.8 ± 1.2
Hg (male C57B6 mice [5]): 12.9 ± 0.5
PCO2 (male C57B6 mice [5]): 47 ± 7.1
PO2 (male C57B6 mice [5]): 135 ± 14.2
Ph (male C57B6 mice [5]): 7.34 ± 0.08
total and regional infarction volume (male C57B6 mice [2]; C75 20 mg/kg i.p. immediately prior to onset of ischemia, vs vehicle (RPMI), p<0.001): significant reduction
increase in pAMPK levels at 4 hr (2 hr of reperfusion) ([3]; C75 treated mice vs vehicle, 2-hour MCAO): blunted
pAMPK levels 24 hr following stroke ([3]; C75 treated vs vehicle, both sham and stroke mice): reduced; also recorded: Reductions

c1cc(-c2cnn3cc(-c4ccc(OCCN5CCCCC5)cc4)cnc23)ccn1 [Compound C]
severity of behavioral deficits at 24 hours (score 0-4) (male C57B6 mice [4]; Compound C 20 mg/kg i.p. at stroke onset, vehicle 3.3±0.3): 1.9±0.2
relative cerebral blood flow (CBF) by laser Doppler, intraischemic and during the 30 minutes after reperfusion, vs vehicle (male C57B6 mice [5]; Compound C 20 mg/kg i.p.): no difference
relative cerebral blood flow (CBF) by laser Doppler, intraischemic period (male C57B6 mice [5]; Compound C 20 mg/kg i.p., vehicle 9.8±0.54, p=n.s.): 10.6±0.9 % of baseline
MAP (male C57B6 mice [5]): 82.2 ± 5.9
LDF (% BL) (male C57B6 mice [5]): 10.6 ± 0.9 % BL
HCO3 (male C57B6 mice [5]): 23.1 ± 0.08
Hg (male C57B6 mice [5]): 12.7 ± 1.3
PCO2 (male C57B6 mice [5]): 42.1 ± 3.1
PO2 (male C57B6 mice [5]): 144.6 ± 14.3
Ph (male C57B6 mice [5]): 7.36 ± 0.07
cortical (CTX) infarct volume (male C57B6 mice [2]; Compound C 20 mg/kg i.p. at stroke onset, 2-hr MCAO, 22 hr reperfusion, vehicle 63±3.4): 19.4±3.3 % non-ischemic hemisphere
striatal (CP) infarct volume (male C57B6 mice [2]; Compound C 20 mg/kg i.p. at stroke onset, 2-hr MCAO, 22 hr reperfusion, vehicle 64±5.7): 21±3.9 % non-ischemic hemisphere
total infarct volume (male C57B6 mice [2]; Compound C 20 mg/kg i.p. at stroke onset, 2-hr MCAO, 22 hr reperfusion, vs vehicle): significantly reduced
pAMPK levels 4 hr after infarction (2 hours of reperfusion) ([3]; Compound C treated mice vs vehicle, 2 hours MCAO): reduced
